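Following 48 hours of exposure in 96-well plates, responses at five concentrations were used to interpolate endpoints linearly. GI50 marks 50% less growth.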 Active and inactive are the calls of the source. No stated cut-off is given here; in the data, active = GI50 up to about 1.1 µM and inactive = higher.
Assays:
Assay in all cases: inhibition of tumour cell growth, NCI panel, 48 h
SK-MEL-2 = tested on: SK-MEL-2
DMS-114 = tested on: DMS-114
M19-MEL = tested on: M19-MEL
786-0 = tested on: 786-0
Malme-3M = tested on: Malme-3M
HT-29 = tested on: HT-29
CCRF-CEM = tested on: CCRF-CEM
EKVX = tested on: EKVX
OVCAR-4 = tested on: OVCAR-4
SF-539 = tested on: SF-539
DLD-1 = tested on: DLD-1
SK-MEL-5 = tested on: SK-MEL-5
UACC-62 = tested on: UACC-62
LOX IMVI = tested on: LOX IMVI
ACHN = tested on: ACHN
SK-OV-3 = tested on: SK-OV-3
COLO 205 = tested on: COLO 205
HOP-62 = tested on: HOP-62
SK-MEL-28 = tested on: SK-MEL-28
SN12C = tested on: SN12C
SF-295 = tested on: SF-295
NCI-H460 = tested on: NCI-H460
HOP-92 = tested on: HOP-92
MOLT-4 = tested on: MOLT-4
UACC-257 = tested on: UACC-257
CAKI-1 = tested on: CAKI-1
RXF 393 = tested on: RXF 393
DMS-273 = tested on: DMS-273
A549 = tested on: A549
SF-268 = tested on: SF-268
LXFL 529 = tested on: LXFL 529
RPMI-8226 = tested on: RPMI-8226
HCT-116 = tested on: HCT-116
HL-60 = tested on: HL-60
M14 = tested on: M14
SR = tested on: SR
IGROV-1 = tested on: IGROV-1
SW-620 = tested on: SW-620
HCC 2998 = tested on: HCC 2998
NCI-H522 = tested on: NCI-H522
SNB-75 = tested on: SNB-75
OVCAR-8 = tested on: OVCAR-8
TK-10 = tested on: TK-10
HCT-15 = tested on: HCT-15
KM12 = tested on: KM12
XF498 = tested on: XF498
OVCAR-3 = tested on: OVCAR-3
NCI-H226 = tested on: NCI-H226
A498 = tested on: A498
MCF7 = tested on: MCF7
Hs-578T = tested on: Hs-578T
T47D = tested on: T47D
SNB-19 = tested on: SNB-19
MDA-MB-231 = tested on: MDA-MB-231
NCI-H23 = tested on: NCI-H23
DU-145 = tested on: DU-145
MDA-MB-435 = tested on: MDA-MB-435
U-251 = tested on: U-251
BT-549 = tested on: BT-549
NCI/ADR-RES = tested on: NCI/ADR-RES
MDA-N = tested on: MDA-N
PC-3 = tested on: PC-3
K562 = tested on: K562
OVCAR-5 = tested on: OVCAR-5
UO-31 = tested on: UO-31
SNB-78 = tested on: SNB-78
KM-20L2 = tested on: KM-20L2
HOP-18 = tested on: HOP-18

Cn1cc(C(=O)c2ccccc2)c2ccccc2c1=O
GI50 (SK-MEL-2): > 100 µM (inactive)
GI50 (DMS-114): > 100 µM (inactive)
GI50 (M19-MEL): > 100 µM (inactive)
GI50 (786-0): > 100 µM (inactive)
GI50 (Malme-3M): > 100 µM (inactive)
GI50 (HT-29): > 100 µM (inactive)
GI50 (CCRF-CEM): > 100 µM (inactive)
GI50 (EKVX): > 100 µM (inactive)
GI50 (OVCAR-4): > 100 µM (inactive)
GI50 (SF-539): > 100 µM (inactive)
GI50 (DLD-1): > 100 µM (inactive)
GI50 (SK-MEL-5): > 100 µM (inactive)
GI50 (UACC-62): 49.2 µM (inactive)
GI50 (LOX IMVI): > 100 µM (inactive)
GI50 (ACHN): > 100 µM (inactive)
GI50 (SK-OV-3): > 100 µM (inactive)
GI50 (COLO 205): > 100 µM (inactive)
GI50 (HOP-62): 18.8 µM (inactive)
GI50 (SK-MEL-28): > 100 µM (inactive)
GI50 (SN12C): > 100 µM (inactive)
GI50 (SF-295): 93.5 µM (inactive)
GI50 (NCI-H460): > 100 µM (inactive)
GI50 (HOP-92): 62.8 µM (inactive)
GI50 (MOLT-4): > 100 µM (inactive)
GI50 (UACC-257): > 100 µM (inactive)
GI50 (CAKI-1): 50.6 µM (inactive)
GI50 (RXF 393): > 100 µM (inactive)
GI50 (DMS-273): > 100 µM (inactive)
GI50 (A549): > 100 µM (inactive)
GI50 (SF-268): > 100 µM (inactive)
GI50 (LXFL 529): 89.3 µM (inactive)
GI50 (RPMI-8226): 94.2 µM (inactive)
GI50 (HCT-116): > 100 µM (inactive)
GI50 (HL-60): 24.8 µM (inactive)
GI50 (M14): > 100 µM (inactive)
GI50 (SR): > 100 µM (inactive)
GI50 (IGROV-1): > 100 µM (inactive)
GI50 (SW-620): > 100 µM (inactive)
GI50 (HCC 2998): > 100 µM (inactive)
GI50 (NCI-H522): 34.4 µM (inactive)
GI50 (SNB-75): 23.4 µM (inactive)
GI50 (OVCAR-8): > 100 µM (inactive)
GI50 (TK-10): 73.1 µM (inactive)
GI50 (HCT-15): > 100 µM
GI50 (KM12): > 100 µM (inactive)
GI50 (XF498): > 100 µM (inactive)
GI50 (OVCAR-3): > 100 µM (inactive)

Nc1nc(=S)c2ncn(C3CC(O)C(CO)O3)c2[nH]1 (stereo not drawn)
GI50 (LXFL 529): > 100 µM (inactive)

Cc1c2cccc-2c(OCCO)cc2c3ccccc3n(C)c12
GI50 (SK-MEL-2): 3.15 µM (inactive)
GI50 (786-0): 3.37 µM (inactive)
GI50 (NCI-H226): 5.58 µM (inactive)
GI50 (A498): 7.59 µM (inactive)
GI50 (Malme-3M): 3.85 µM (inactive)
GI50 (MCF7): 3.65 µM (inactive)
GI50 (Hs-578T): 2.6 µM (inactive)
GI50 (HT-29): 4.24 µM (inactive)
GI50 (CCRF-CEM): 1.92 µM (inactive)
GI50 (T47D): 3.1 µM (inactive)
GI50 (SNB-19): 5.09 µM (inactive)
GI50 (EKVX): 2.63 µM (inactive)
GI50 (OVCAR-4): 3.09 µM (inactive)
GI50 (SF-539): 2.54 µM (inactive)
GI50 (SK-MEL-5): 2.12 µM (inactive)
GI50 (UACC-62): 4.7 µM (inactive)
GI50 (LOX IMVI): 2.77 µM (inactive)
GI50 (ACHN): 5.12 µM (inactive)
GI50 (MDA-MB-231): 2.75 µM (inactive)
GI50 (SK-OV-3): 1.58 µM (inactive)
GI50 (COLO 205): 1.69 µM (inactive)
GI50 (HOP-62): 2.56 µM (inactive)
GI50 (SK-MEL-28): 3.73 µM (inactive)
GI50 (SN12C): 3.13 µM (inactive)
GI50 (SF-295): 3.67 µM (inactive)
GI50 (NCI-H23): 3.4 µM (inactive)
GI50 (NCI-H460): 3.73 µM (inactive)
GI50 (HOP-92): 1.77 µM (inactive)
GI50 (MOLT-4): 3.86 µM (inactive)
GI50 (UACC-257): 4.36 µM (inactive)
GI50 (DU-145): 6.79 µM (inactive)
GI50 (CAKI-1): 10.2 µM (inactive)
GI50 (MDA-MB-435): 4.35 µM (inactive)
GI50 (RXF 393): 5.57 µM (inactive)
GI50 (A549): 3.76 µM (inactive)
GI50 (SF-268): 4.02 µM (inactive)
GI50 (U-251): 1.87 µM (inactive)
GI50 (BT-549): 3.45 µM (inactive)
GI50 (RPMI-8226): 2.81 µM (inactive)
GI50 (HCT-116): 3.16 µM (inactive)
GI50 (HL-60): 2.16 µM (inactive)
GI50 (M14): 3.44 µM (inactive)
GI50 (NCI/ADR-RES): 30.8 µM (inactive)
GI50 (SR): 2.34 µM (inactive)
GI50 (MDA-N): 3.65 µM (inactive)
GI50 (IGROV-1): 1.49 µM (inactive)
GI50 (SW-620): 4.08 µM (inactive)
GI50 (PC-3): 3.18 µM (inactive)
GI50 (K562): 3.72 µM (inactive)
GI50 (HCC 2998): 3.64 µM (inactive)
GI50 (NCI-H522): 2.18 µM (inactive)
GI50 (SNB-75): 5.28 µM (inactive)
GI50 (OVCAR-8): 2.9 µM (inactive)
GI50 (TK-10): 10.7 µM (inactive)
GI50 (HCT-15): 6.11 µM
GI50 (KM12): 3.21 µM (inactive)
GI50 (OVCAR-5): 4.83 µM (inactive)
GI50 (UO-31): 2.57 µM (inactive)
GI50 (OVCAR-3): 1.46 µM (inactive)

N=S(=O)(c1ccccc1)c1ccccc1
GI50 (SK-MEL-2): > 100 µM (inactive)
GI50 (DMS-114): > 100 µM (inactive)
GI50 (M19-MEL): > 100 µM (inactive)
GI50 (NCI-H226): > 100 µM (inactive)
GI50 (A498): > 100 µM (inactive)
GI50 (Malme-3M): > 100 µM (inactive)
GI50 (SNB-78): > 100 µM (inactive)
GI50 (HT-29): > 10 µM (inactive)
GI50 (CCRF-CEM): 24.2 µM (inactive)
GI50 (SNB-19): > 100 µM (inactive)
GI50 (EKVX): > 100 µM (inactive)
GI50 (OVCAR-4): > 100 µM (inactive)
GI50 (SF-539): > 100 µM (inactive)
GI50 (DLD-1): > 100 µM (inactive)
GI50 (SK-MEL-5): > 100 µM (inactive)
GI50 (UACC-62): > 100 µM (inactive)
GI50 (LOX IMVI): > 100 µM (inactive)
GI50 (ACHN): > 100 µM (inactive)
GI50 (KM-20L2): > 100 µM (inactive)
GI50 (HOP-18): > 100 µM (inactive)
GI50 (SK-OV-3): > 100 µM (inactive)
GI50 (COLO 205): > 100 µM (inactive)
GI50 (HOP-62): > 100 µM (inactive)
GI50 (SK-MEL-28): > 100 µM (inactive)
GI50 (SN12C): > 100 µM (inactive)
GI50 (SF-295): > 100 µM (inactive)
GI50 (NCI-H23): > 100 µM (inactive)
GI50 (NCI-H460): > 100 µM (inactive)
GI50 (MOLT-4): 22 µM (inactive)
GI50 (UACC-257): > 100 µM (inactive)
GI50 (CAKI-1): > 100 µM (inactive)
GI50 (A549): > 100 µM (inactive)
GI50 (SF-268): > 100 µM (inactive)
GI50 (U-251): > 100 µM (inactive)
GI50 (LXFL 529): > 100 µM (inactive)
GI50 (RPMI-8226): > 100 µM (inactive)
GI50 (HCT-116): > 100 µM (inactive)
GI50 (HL-60): > 100 µM (inactive)
GI50 (M14): > 100 µM (inactive)
GI50 (SR): > 100 µM (inactive)
GI50 (IGROV-1): > 100 µM (inactive)
GI50 (SW-620): > 100 µM (inactive)
GI50 (K562): 28.2 µM (inactive)
GI50 (HCC 2998): > 100 µM (inactive)
GI50 (NCI-H522): > 100 µM (inactive)
GI50 (SNB-75): > 100 µM (inactive)
GI50 (OVCAR-8): > 100 µM (inactive)
GI50 (KM12): > 100 µM (inactive)
GI50 (OVCAR-5): > 100 µM (inactive)
GI50 (UO-31): > 100 µM (inactive)
GI50 (OVCAR-3): > 100 µM (inactive)
